The values that follow come from PubChem BioAssay AID1053145 (Broad Institute, 2014).

For the assay, the system named is HepG2 viability, CellTiter-Glo ATP luminescence, overnight. The experiment in a line: HepG2 cell viability, dose response, cytotoxicity control for Trib1 inducer project, ATP luminescence, cherry-pick (AID 1053145).

Each structure is given as a SMILES string. Active and inactive are the calls of the source. The rule behind the calls is not given here.

One may read the AC50 as the concentration at which the activity in the assay is half-maximal.

In the case of `CN1C(=O)c2cc(NC(=O)c3ccc(C(F)(F)F)cc3)ccc2OC[C@@H]2O[C@@H](CC(=O)NC3Cc4ccccc4C3)CC[C@@H]21`, the AC50 is > 25 µM (inactive).
On to `CN1C(=O)c2cc(NC(=O)c3ccc(C(F)(F)F)cc3)ccc2OC[C@@H]2O[C@H](CC(=O)NC3Cc4ccccc4C3)CC[C@@H]21`, for which the AC50 is > 25 µM (inactive).
